Results on two substances are retold here after patent publication US20040082503A1, “Methods for treatment of diabetes using peptide analogues of insulin” (Neurocrine Biosciences, Inc., priority 1998, published 2004).

Assay [1] has as its system NOD mice (spontaneous diabetes). Nature of the assay: Reduction of incidence of diabetes in NOD mice. It is filed as in vivo, NOD mouse.
For assay [2], the system named is Insulin specific NOD T cell clone PD12-2.40. Nature of the assay: Proliferation of insulin-specific NOD T cell clone PD12-2.40. It is filed as cell-based, mouse (NOD). To be noted: for S.I. (Stimulation Index): clone PD12-2.40, 50 μM peptide, cpm with peptide/cpm in medium alone, Exp. 1 and 2. The procedure: (§1) Insulin specific NOD T cell lines were established by culturing lymphocytes isolated from islet-infiltrating populations by in vitro stimulation with either porcine insulin at 25 μg/ml and irradiated NOD islet cell in the presence of irradiated NOD spleen cells as antigen presenting cells and cytokines. To obtain the infiltrating lymphocytes the following procedures were performed (see Wegmann et al., Eur. J. Immunol. 24:1853, 1994): the pancreas from the NOD mouse was digested with collagenase and individual islets were isolated manually. The infiltrating lymphocytes were then obtained by mild trypsin digestion of the islets. The insulin specific T cell lines or clones were propagated by serial stimulation in the presence of NOD spleen cells, porcine insulin and lymphokines. Clones were obtained by limiting dilution of the B chain (9-23) specific T cell lines in the presence of the antigen presenting cells and porcine insulin at 25 μg/ml. Wells with a growing population of cells following limiting dilution were expanded in appropriate medium, and after one cycle of growth were tested for reactivity to the B chain (9-23) peptide of insulin by evaluating the proliferative response.
(§2) Insulin B chain (9-23) (SEQ ID NO:2) specific mouse (NOD) T cell clones were isolated from infiltrated islets as described in Example 2. Peptide analogues with single alanine substitutions were prepared as described in Example 1. The effect of each analogue on T cell proliferation was then evaluated using an assay performed in 96-well flat bottom microtiter plates (see Daniel et al., Eur. J. Immunol. 25:1056, 1995). Briefly 25,000 T cell clones along with 1 million irradiated NOD spleen cells were cultured in the presence of 50 μg/ml of insulin B chain 9-23 peptide or any of the alanine substituted peptides listed below in triplicate sets. The plates were incubated for a total of 72 hours in 7% carbon dioxide atmosphere with a pulse of 1 μCi/well of tritiated thymidine for the last 6-8 hours of culture. Cells were harvested on a glass fiber filter and the associated radioactivity was counted in a liquid scintillation counter. Results are expressed as mean counts per minute of triplicate wells.
NOD T cell clones were incubated in the presence of 50 μM of either the native B chain (9-23) peptide or NBI-6024. The data in Table 3 represent the mean of triplicate sample±standard error of the mean. Within Table 3, S.I. (Stimulation Index)=proliferation (cpm) in the presence of the peptide/proliferation (cpm) in medium alone.

For assay [3], the system named is DQ8 antigens. Nature of the assay: Binding to DQ8 antigens.
In assay [4] the test system is Murine NOD T cell clone PD12-2.35 response to insulin B chain (9-23) peptide. Nature of the assay: Antagonism of T cell proliferation assay, clone PD12-2.35. Format: cell-based, mouse (NOD). To be noted: for % Inhibition: N/A = no inhibition observed. The procedure:
Peptide analogues of B chain (9-23) containing alanine substitutions at residue 12, 13, 15 or 16 or the doubly substituted peptide at positions 16 and 19 (A^16,19; NBI-6024) were prepared as described in Example 1. T cell antagonism was detected by evaluating the ability of the peptide analogues to inhibit T cell proliferation induced by native B chain (9-23) (SEQ ID NO:2). In this assay, antigen presenting cells were first irradiated and then incubated with the competing peptide analogue and the native B chain (9-23) peptide. T cells were then added to the culture. Various concentrations of candidate peptide analogues were included in cultures which were incubated for a total of 4 days. Following this incubation period, each culture was pulsed with 1 μCi of [^3H]-thymidine for an additional 12-18 hours. Cultures were then harvested on fiberglass filters and counted as above. Mean CPM and standard error of the mean were calculated from data determined in triplicate cultures.
Within Table 4, the control peptide, NBI-5096, is an unrelated peptide from myelin basic protein. The percent inhibition was calculated as: (1−experimental cpm/insulin peptide cpm)×100%.

Assay [5] has as its system Soluble NBI-6024 induced T cells (IL-2, IL-4, IL-5 production). Kind of assay: Cytokine production by NBI-6024 induced T cells (ELISA). To be noted: for Cytokine IL-2: 48 h supernatant. Format: cell-based, NOD mouse. The procedure:
FIG. 18 is a histogram, showing a comparison of the cytokines produced by immune cells induced by A^16,19 (NBI-6024) peptide in the presence or absence of adjuvant. Groups of NOD mice were immunized with the NBI-6024 alone or emulsified with CFA. The cytokines IL-2 and IL-4, as indicated, were measured at 25 μM of NBI-6024 and expressed as pg/mL after subtracting the background values.
To determine the type of T cells produced following soluble administration of NBI-6024, the culture supernatants from immune lymphoid cells were removed 48 hours following the initiation of culture and the levels of various cytokines measured using standard ELISA technology. […] Within Table 8, values are expressed in pg/ml as mean of triplicates±SEM.

Assay [6] concerns Insulin specific NOD T cell clone PD6-4.3. Nature of the assay: Proliferation of insulin-specific NOD T cell clone PD6-4.3. It is filed as cell-based, mouse (NOD). The settings on record: 50 μg/ml peptide, 72 h, 3H-thymidine; no antigen 163 cpm. The protocol:
as §1, §2

The subject of assay [7] is Insulin specific NOD T cell clone PD12-4.34. Kind of assay: Proliferation of insulin-specific NOD T cell clone PD12-4.34. Format: cell-based, mouse (NOD). The settings on record: 50 μg/ml peptide, 72 h, 3H-thymidine; no antigen 231 cpm. The protocol: as §1, §2
Assay [8] relates to Insulin specific NOD T cell clone PD12-4.29. Kind of assay: Proliferation of insulin-specific NOD T cell clone PD12-4.29. It is filed as cell-based, mouse (NOD). The settings on record: 50 μg/ml peptide, 72 h, 3H-thymidine; no antigen 789 cpm. The protocol: as §1, §2
The subject of assay [9] is Insulin specific NOD T cell clone PD12-4.4. Nature of the assay: Proliferation of insulin-specific NOD T cell clone PD12-4.4. Format: cell-based, mouse (NOD). To be noted: 50 μg/ml peptide, 72 h, 3H-thymidine; no antigen 350 cpm. The procedure: as §1, §2
Where [10] appears, read: B(9-23) 5 μM + 10 μM competing peptide.
Where [11] appears, read: B(9-23) 5 μM + 50 μM competing peptide.
[12] abbreviates: soluble NBI-6024 induced T cells cultured with NBI-6024 5 μM.
The mark [13] stands for this setting: soluble NBI-6024 induced T cells cultured with NBI-6024 25 μM.

Values joined by “and” are separate entries in the source; they are usually repeats but may differ in a detail not shown here. Identical values can stand only once.

Take “NBI-6024: insulin B chain 9-23 with alanine substitutions at positions 16 and 19 (SHLVEALALVAGERG)”: in assay [1] (female NOD mice, 20 mg/kg (400 μg/mouse) s.c. weekly for 12 weeks then every other week until Week 35, p<0.004, FIG. 11), the “Reduction of the incidence of diabetes compared to the untreated group” value was 60-70%. In addition, in [1] (second experiment, NOD mice, 20 mg/kg s.c., FIG. 12), the “Incidence of diabetes compared to neurotensin treated or untreated group” value was “reduced incidence of diabetes”. For the same substance, the “S.I. (Stimulation Index)” value in assay [2] was 1.01 and 1.16. The “Binding affinity to DQ8 antigens” value in assay [3] is “binds with similar affinity”. The “CPM ± SEM” value in assay [4] (setting [10]) was 4,441 ± 626 CPM; in assay [4] (setting [11]), 1,389 ± 218 CPM. For the same substance, the “% Inhibition” value in assay [4] (setting [10]) was 43.0%; in assay [4] (setting [11]), 82.0%. Also, the Cytokine production profile result in [5] (NBI-6024 emulsified with CFA (control)) is “did induce the expected Th1-cytokine profile (IL-2)”; in assay [5] (T cells from mice immunized with soluble NBI-6024), “produced the Th2 cytokines, interleukin-4 (FIG. 18) and interleukin-5 (Table 8), and not the Th1-derived interleukin-2”. In addition, the “Cytokine IL-4” value in assay [5] (soluble NBI-6024 induced T cells cultured with NBI-6024 1 μM, 0: 134 ± 0) is 684 ± 92 pg/mL; in assay [5] (setting [12]), 1,653 ± 51 pg/ml; in assay [5] (setting [13]), 2,102 ± 85 pg/ml. For the same substance, the “Cytokine IL-5” value is 9,999 ± 503 pg/ml in assay [5] (soluble NBI-6024 induced T cells cultured with NBI-6024 1 μM, 0: 1,814 ± 332); 23,496 ± 684 pg/ml in assay [5] (setting [12]); 28,062 ± 141 pg/ml in assay [5] (setting [13]). Moreover, the “Cytokine IL-2” value in assay [5] (soluble NBI-6024 induced T cells cultured with NBI-6024 1 μM), in assay [5] (setting [12]) and in [5] (setting [13]) was less than 15 pg/mL each time.
With “Native 9-23: native peptide, residues 9-23 of human insulin B chain (SEQ ID NO:2) (SHLVEALYLVCGERG; Residues 9-23 of human insulin B chain; listed as Homo sapiens) [reference compound]”, the “Response (cpm) of T cell clone PD6-4.3” value in [6] is 10463 cpm. For the same substance, in assay [1] (NOD mice, 400 μg s.c. weekly, 13 treatments, neurotensin as control, FIG. 10), the “Incidence of diabetes (percent of mice diabetic)” value is “reduced the incidence of diabetes”. The “Response (cpm) of T cell clone PD12-2.40” value in [2] (50 μg/ml peptide, 72 h, 3H-thymidine, no antigen 682 cpm) came to 32221 cpm. Also, the “S.I. (Stimulation Index)” value in assay [2] (listed as Insulin B Chain (9-23)) was 96.16 and 98.4. Besides, in assay [7], the “Response (cpm) of T cell clone PD12-4.34” value is recorded as 3614 cpm. The “CPM ± SEM” value in assay [4] (B(9-23) 5 μM alone, medium only 213 ± 17) is recorded as 7,840 ± 528 CPM. Further, in assay [8], the “Response (cpm) of T cell clone PD12-4.29” value worked out at 14820 cpm. The “Response (cpm) of T cell clone PD12-4.4” value in assay [9] is 10000 cpm.
